Assay results as given in the supplement of paper PMC10307832.

Experiments:
Experiment in all cases: relative viability (nuclei count vs DMSO), 5 days (fraction); higher = more cells survive
KIN001-266 + Linsitinib = compound: CCN1CCC(CC1)N2C=C(N=N2)CNC3=CC4=C(C(=CN=C4C(=C3)Cl)C#N)NC5=CC(=C(C=C5)F)Cl [KIN001-266] + C[C@]1(O)C[C@@H](c2nc(-c3ccc4ccc(-c5ccccc5)nc4c3)c3c(N)nccn32)C1 [Linsitinib] (partner 1 µM)
Outline: (§1)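 For relative viability, nuclei counts in treated wells were divided by those in vehicle wells. Lung cancer cell lines had been pin-tool dosed in 1536-well plates the day after seeding and cultured for 5 days, then fixed and stained in one step (final 0.05% Triton X-100, 1% formaldehyde, 1 ug/ml Hoechst) and imaged at 4×. Doses were one drug alone or a fixed anchor-drug dose plus five library-drug doses (not always all listed) in √10 steps, and values are duplicate-plate medians.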

KIN001-266 + Lapatinib = compound: CCN1CCC(CC1)N2C=C(N=N2)CNC3=CC4=C(C(=CN=C4C(=C3)Cl)C#N)NC5=CC(=C(C=C5)F)Cl [KIN001-266] + CS(=O)(=O)CCNCc1ccc(-c2ccc3ncnc(Nc4ccc(OCc5cccc(F)c5)c(Cl)c4)c3c2)o1 [Lapatinib] (partner 2 µM)
Outline: as §1

KIN001-266 + Alpelisib = compound: CCN1CCC(CC1)N2C=C(N=N2)CNC3=CC4=C(C(=CN=C4C(=C3)Cl)C#N)NC5=CC(=C(C=C5)F)Cl [KIN001-266] + Cc1nc(NC(=O)N2CCC[C@H]2C(N)=O)sc1-c1ccnc(C(C)(C)C(F)(F)F)c1 [Alpelisib] (partner 2 µM)
Outline: as §1

KIN001-266 + OSI-027 = compound: CCN1CCC(CC1)N2C=C(N=N2)CNC3=CC4=C(C(=CN=C4C(=C3)Cl)C#N)NC5=CC(=C(C=C5)F)Cl [KIN001-266] + COc1cccc2cc(-c3nc([C@H]4CC[C@H](C(=O)O)CC4)n4ncnc(N)c34)[nH]c12 [OSI-027] (partner 0.5 µM)
Outline: as §1

Cell Line | relative viability (KIN001-266 + Linsitinib; first compound 0.08 µM) | relative viability (KIN001-266 + Linsitinib; first compound 0.253 µM) | relative viability (KIN001-266 + Linsitinib; first compound 0.8 µM) | relative viability (KIN001-266 + Linsitinib; first compound 2.53 µM) | relative viability (KIN001-266 + Linsitinib; first compound 8 µM) | relative viability (KIN001-266 + Lapatinib; first compound 0.08 µM) | relative viability (KIN001-266 + Lapatinib; first compound 0.253 µM) | relative viability (KIN001-266 + Lapatinib; first compound 0.8 µM) | relative viability (KIN001-266 + Lapatinib; first compound 2.53 µM) | relative viability (KIN001-266 + Lapatinib; first compound 8 µM) | relative viability (KIN001-266 + Alpelisib; first compound 0.08 µM) | relative viability (KIN001-266 + Alpelisib; first compound 0.253 µM) | relative viability (KIN001-266 + Alpelisib; first compound 0.8 µM) | relative viability (KIN001-266 + Alpelisib; first compound 2.53 µM) | relative viability (KIN001-266 + Alpelisib; first compound 8 µM) | relative viability (KIN001-266 + OSI-027; first compound 0.08 µM) | relative viability (KIN001-266 + OSI-027; first compound 0.253 µM) | relative viability (KIN001-266 + OSI-027; first compound 0.8 µM) | relative viability (KIN001-266 + OSI-027; first compound 2.53 µM) | relative viability (KIN001-266 + OSI-027; first compound 8 µM)
LOU-NH91 | 0.968 | 0.952 | 0.652 | 0.896 | 0.73 | 0.854 | 0.751 | 0.711 | 0.689 | 0.745 | 0.735 | 0.724 | 0.501 | 0.676 | 0.588 | 0.753 | 0.76 | 0.434 | 0.608 | 0.546
LU99A | 0.635 | 0.564 | 0.496 | 0.401 | 0.467 | 1.16 | 1.07 | 1.03 | 0.834 | 0.803 | 0.66 | 0.606 | 0.442 | 0.438 | 0.442 | 0.285 | 0.303 | 0.301 | 0.269 | 0.29
LXF-289 | 0.931 | 0.945 | 0.878 | 0.968 | 0.935 | 0.901 | 0.898 | 0.862 | 0.865 | 0.96 | 1.05 | 1.03 | 1.01 | 1.05 | 1.03 | 0.788 | 0.843 | 0.775 | 0.788 | 0.678
NCI-H23 | 0.626 | 0.604 | 0.591 | 0.691 | 0.55 | 1.22 | 1.12 | 1 | 0.991 | 0.845 | 0.768 | 0.646 | 0.733 | 0.663 | 0.695 | 0.651 | 0.618 | 0.541 | 0.398 | 0.485
NCI-H322M | 0.957 | 0.987 | 0.897 | 0.855 | 0.83 | 0.575 | 0.604 | 0.601 | 0.57 | 0.489 | 0.648 | 0.87 | 0.8 | 0.694 | 0.689 | 0.56 | 0.598 | 0.593 | 0.458 | 0.579
NCI-H358 | 0.695 | 0.628 | 0.821 | 0.667 | 0.33 | 0.493 | 0.497 | 0.483 | 0.407 | 0.372 | 0.825 | 0.774 | 0.981 | 0.831 | 0.43 | 0.79 | 0.72 | 0.997 | 0.903 | 0.596
NCI-H460 | 0.673 | 0.853 | 0.899 | 0.762 | 0.539 | 0.891 | 0.933 | 1.13 | 1 | 0.954 | 0.609 | 0.581 | 0.484 | 0.485 | 0.413 | 0.623 | 0.667 | 0.781 | 0.605 | 0.574
NCI-H520 | 1.01 | 0.969 | 1.06 | 0.769 | 0.894 | 0.899 | 0.85 | 1.02 | 0.718 | 0.886 | 0.817 | 0.929 | 1.08 | 0.646 | 0.801 | 0.232 | 0.351 | 0.278 | 0.235 | 0.297
NCI-H596 | 1.08 | 1.14 | 1.06 | 1.07 | 0.812 | 1.09 | 1.07 | 1.17 | 1.06 | 1.01 | 0.492 | 0.445 | 0.431 | 0.534 | 0.398 | 0.858 | 0.635 | 0.616 | 0.638 | 0.529
NCI-H647 | 1.31 | 1.03 | 1.26 | 1.13 | 1.03 | 1.04 | 1.07 | 1.11 | 0.876 | 0.818 | 1.29 | 1.3 | 1.11 | 1.11 | 0.928 | 0.669 | 0.691 | 0.577 | 0.857 | 0.544
NCI-H650 | 0.914 | 1.05 | 0.976 | 0.979 | 1.03 | 1.04 | 1.07 | 0.849 | 1.12 | 1.16 | 1.12 | 1.08 | 1.33 | 1.09 | 1.14 | 0.62 | 0.591 | 0.563 | 0.493 | 0.55
NCI-H661 | 0.551 | 0.514 | 0.537 | 0.515 | 0.425 | 0.494 | 0.449 | 0.532 | 0.438 | 0.29 | 0.95 | 0.753 | 0.721 | 0.557 | 0.591 | 0.693 | 0.745 | 0.723 | 0.627 | 0.514
NCI-H727 | 0.296 | 0.283 | 0.237 | 0.284 | 0.333 | 0.821 | 1.1 | 0.806 | 0.805 | 0.537 | 0.585 | 0.567 | 0.622 | 0.597 | 0.329 | 0.646 | 0.573 | 0.593 | 0.541 | 0.527
NCI-H838 | 0.979 | 1.04 | 1.01 | 0.936 | 0.59 | 0.988 | 0.989 | 1.13 | 1.06 | 0.866 | 1.04 | 0.998 | 1.05 | 0.966 | 0.694 | 0.36 | 0.435 | 0.423 | 0.361 | 0.343
NCI-H1355 | 0.814 | 0.803 | 0.905 | 0.779 | 0.742 | 1.1 | 0.924 | 1.02 | 1.04 | 0.938 | 0.854 | 0.783 | 0.912 | 0.737 | 0.764 | 0.476 | 0.426 | 0.4 | 0.373 | 0.397
